Results taken from the supplement of paper PMC10307832.

Tests used:
Experiment in all cases: relative viability (nuclei count vs DMSO), 5 days (fraction); higher = more cells survive
Dovitinib + Decitabine = compound: CN1CCN(c2ccc3nc(-c4c(N)c5c(F)cccc5[nH]c4=O)[nH]c3c2)CC1 [Dovitinib] + Nc1ncn([C@H]2C[C@H](O)[C@@H](CO)O2)c(=O)n1 [Decitabine] (partner 2 µM)
Method in brief: (§1)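 Lung cancer cell lines in 1536-well plates got either a single drug or a fixed anchor-drug dose together with five library-drug doses (not always all listed) in √10 steps, by pin tool, on the day after seeding. Nuclei were counted after 5 days, and relative viability is the treated-to-vehicle ratio of nuclei counts. Values are medians of duplicate plates.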

Dovitinib + Crizotinib = compound: CN1CCN(c2ccc3nc(-c4c(N)c5c(F)cccc5[nH]c4=O)[nH]c3c2)CC1 [Dovitinib] + C[C@@H](Oc1cc(-c2cnn(C3CCNCC3)c2)cnc1N)c1c(Cl)ccc(F)c1Cl [Crizotinib] (partner 1 µM)
Method in brief: as §1

Dovitinib + Phenformin = compound: CN1CCN(c2ccc3nc(-c4c(N)c5c(F)cccc5[nH]c4=O)[nH]c3c2)CC1 [Dovitinib] + N=C(N)NC(=N)NCCc1ccccc1 [Phenformin] (partner 250 µM)
Method in brief: as §1

Dovitinib + Navitoclax = compound: CN1CCN(c2ccc3nc(-c4c(N)c5c(F)cccc5[nH]c4=O)[nH]c3c2)CC1 [Dovitinib] + CC1(C)CCC(c2ccc(Cl)cc2)=C(CN2CCN(c3ccc(C(=O)NS(=O)(=O)c4ccc(N[C@H](CCN5CCOCC5)CSc5ccccc5)c(S(=O)(=O)C(F)(F)F)c4)cc3)CC2)C1 [Navitoclax] (partner 0.5 µM)
Method in brief: as §1

Cell Line	relative viability (Dovitinib + Decitabine; first compound 0.02 µM)	relative viability (Dovitinib + Decitabine; first compound 0.06325 µM)	relative viability (Dovitinib + Decitabine; first compound 0.2 µM)	relative viability (Dovitinib + Decitabine; first compound 0.6325 µM)	relative viability (Dovitinib + Decitabine; first compound 2 µM)	relative viability (Dovitinib + Crizotinib; first compound 0.02 µM)	relative viability (Dovitinib + Crizotinib; first compound 0.06325 µM)	relative viability (Dovitinib + Crizotinib; first compound 0.2 µM)	relative viability (Dovitinib + Crizotinib; first compound 0.6325 µM)	relative viability (Dovitinib + Crizotinib; first compound 2 µM)	relative viability (Dovitinib + Phenformin; first compound 0.02 µM)	relative viability (Dovitinib + Phenformin; first compound 0.06325 µM)	relative viability (Dovitinib + Phenformin; first compound 0.2 µM)	relative viability (Dovitinib + Phenformin; first compound 0.6325 µM)	relative viability (Dovitinib + Phenformin; first compound 2 µM)	relative viability (Dovitinib + Navitoclax; first compound 0.02 µM)	relative viability (Dovitinib + Navitoclax; first compound 0.06325 µM)	relative viability (Dovitinib + Navitoclax; first compound 0.2 µM)	relative viability (Dovitinib + Navitoclax; first compound 0.6325 µM)	relative viability (Dovitinib + Navitoclax; first compound 2 µM)
HCC-366	0.341	0.363	0.362	0.317	0.378	0.571	0.6	0.486	0.61	0.562	0.628	0.6	0.636	0.57	0.641	1.07	1.16	1.02	1.08	0.971
HCC-827	0.308	0.353	0.324	0.336	0.338	0.91	0.867	0.932	0.93	0.94	0.395	0.402	0.426	0.41	0.405	1.03	1.02	1.07	1	0.974
HOP-62	0.208	0.255	0.191	0.269	0.214	0.861	0.923	1.15	0.943	1.01	0.616	0.713	0.742	0.55	0.646	0.95	0.995	1.01	1.1	1.08
LC-2-ad	0.777	0.815	0.711	0.795	0.774	0.486	0.436	0.5	0.453	0.465	0.644	0.543	0.621	0.517	0.606	0.463	0.603	0.403	0.382	0.376
LCLC-97TM1	0.188	0.118	0.203	0.217	0.206	0.332	0.305	0.372	0.275	0.253	0.354	0.412	0.431	0.43	0.428	0.368	0.384	0.339	0.403	0.478
LK-2	0.267	0.333	0.295	0.384	0.268	0.216	0.215	0.275	0.223	0.281	0.539	0.306	0.38	0.486	0.342	0.995	0.896	0.876	0.766	0.767
LOU-NH91	0.817	0.812	0.817	0.816	0.813	0.767	0.75	0.729	0.74	0.798	0.826	0.666	0.748	0.785	0.775	0.687	0.72	0.684	0.7	0.804
LU99A	0.759	0.762	0.965	0.981	0.904	0.548	0.597	0.601	0.561	0.547	0.814	0.811	0.926	0.86	0.864	0.78	0.787	0.747	0.774	0.727
LXF-289	0.438	0.402	0.391	0.372	0.359	0.736	0.816	0.789	0.794	0.838	0.514	0.532	0.551	0.513	0.537	0.909	0.929	0.945	0.941	0.858
NCI-H23	0.309	0.329	0.346	0.284	0.291	0.539	0.531	0.526	0.421	0.554	0.888	0.843	0.746	0.737	0.754	0.83	0.759	0.769	0.908	0.764
NCI-H322M	0.667	0.692	0.746	0.737	0.705	0.893	0.874	0.976	0.928	1.06	0.685	0.737	0.811	0.751	0.815	1.17	1.25	1.21	1.27	1.23
NCI-H441	0.254	0.202	0.271	0.223	0.3	0.597	0.661	0.715	0.862	0.798	0.981	0.786	0.767	0.898	0.839	0.665	0.54	0.911	0.572	0.775
NCI-H460	0.464	0.518	0.456	0.494	0.432	0.852	1.02	0.869	0.941	0.919	0.488	0.563	0.517	0.49	0.498	0.961	1.14	1.02	1.08	1.14
NCI-H520	0.477	0.504	0.488	0.499	0.514	0.746	0.724	0.782	0.781	0.798	0.558	0.572	0.625	0.514	0.545	1.17	1.21	1.09	1.03	0.905
NCI-H596	1.09	1.01	0.893	0.985	1.14	0.989	0.916	1.11	1.14	0.984	0.711	0.864	0.785	0.815	0.804	1.02	0.987	0.871	0.768	0.696
NCI-H647	0.402	0.438	0.444	0.303	0.387	1.03	1.14	1.24	1.01	1.1	0.396	0.49	0.638	0.621	0.48	0.958	1.04	1.14	1.04	0.949
